In one data set the target is PIM-3 (Homo sapiens (Human), UniProt Q86V86). In words: inhibition test on kinase PIM-3 (residual activity, IC50). As to conditions: for remaining activity at 10 µM: product at 10 μmol/L, Table 2, N.I. = not inhibitory, read-out: Percentage of residual activity PIM-3; for IC50: ten concentrations, dose-inhibition curve. Type of data set: biochemical. From the text:
(§1) MKK1, ERK 1, ERK 2, JNK1, JNK2, JNK3, p38a MAPK, p38b MAPK, p38g MAPK, p38s MAPK, ERK8, RSK1, RSK2, PDK1, PKBa, PKBb, SGK1, S6K1, PKA, ROCK2, PRK2, PKCa, PKC zeta, PKD1, MSK1, MNK1, MNK2, MAPKAP-K2, MAPKAP-K3, PRAK, CAMKKa, CAMKKb, CAMK1, SmMLCK, PHK, CHK1, CHK2, GSK3b, CDK2/cyclin A, PLK1, PLK1 (Okadaic acid), Aurora B, Aurora C, AMPK, MARK3, BRSK2, MELK, CK1, CK2, NEK2a, NEK6, NEK7, IKKb, PIM-1, PIM-2, PIM-3, SRPK1, MST2, EF2K, HIPK2, HIPK3, PAK-4, PAK5, PAK6, Src, Lck, CSK.
(§2) The results in terms of residual activity of the kinases after being placed in contact with the compounds of Examples 2, 3 and 5, at a concentration of 10 μM (10 μmol/L), are shown in Table 1 below.
(§3) The higher the residual activity of the kinase tested, the lower the inhibitory activity of the test compounds on the tested kinase.
(§4) The compounds according to the invention were then tested on the kinases PIM-1, PIM-2 and PIM-3.
(§5) The results in terms of percentage of residual activity after placing the compounds according to the invention in contact with each of the kinases PIM-1, PIM-2 and PIM-3 are given in Table 2 below.
(§6) The higher the residual activity, the lower the inhibitory activity of the test compounds.
(§7) The mean inhibitory concentrations (IC50) of certain preferred compounds of the invention were determined in the following manner: the IC50 values were measured after performing the inhibition tests on the kinases PIM-1, PIM-2 and PIM-3 at ten different concentrations for each test compound, and the IC50 value was determined from the dose-inhibition curves obtained.

In the next data set the target is PIM-2 (Homo sapiens (Human), UniProt Q9P1W9). In words: inhibition test on kinase PIM-2 (residual activity, IC50). Type of data set: biochemical. The following applies: product at 10 μmol/L, Table 2, N.I. = not inhibitory; for remaining activity at 10 µM: read-out: Percentage of residual activity PIM-2.
Sequence of PIM-2 (Q9P1W9 whole entry, species assumed): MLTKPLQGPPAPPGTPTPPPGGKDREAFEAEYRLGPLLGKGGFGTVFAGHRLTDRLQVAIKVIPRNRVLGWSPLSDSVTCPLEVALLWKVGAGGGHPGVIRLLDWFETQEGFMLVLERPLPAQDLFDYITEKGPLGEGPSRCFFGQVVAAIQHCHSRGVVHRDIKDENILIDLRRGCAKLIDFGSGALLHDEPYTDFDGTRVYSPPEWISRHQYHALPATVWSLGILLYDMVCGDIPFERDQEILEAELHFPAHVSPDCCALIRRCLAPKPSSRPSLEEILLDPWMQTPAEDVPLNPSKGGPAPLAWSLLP
Excerpt: as §1, §2, §3, §4, §5, §6, §7

The next data set deals with PIM-1 (Homo sapiens (Human), UniProt P11309). Briefly: inhibition test on kinase PIM-1 (residual activity, IC50). Type of data set: biochemical. The following applies: for remaining activity at 10 µM: read-out: Percentage of residual activity PIM-1.
Sequence of PIM-1 (P11309 whole entry, species assumed): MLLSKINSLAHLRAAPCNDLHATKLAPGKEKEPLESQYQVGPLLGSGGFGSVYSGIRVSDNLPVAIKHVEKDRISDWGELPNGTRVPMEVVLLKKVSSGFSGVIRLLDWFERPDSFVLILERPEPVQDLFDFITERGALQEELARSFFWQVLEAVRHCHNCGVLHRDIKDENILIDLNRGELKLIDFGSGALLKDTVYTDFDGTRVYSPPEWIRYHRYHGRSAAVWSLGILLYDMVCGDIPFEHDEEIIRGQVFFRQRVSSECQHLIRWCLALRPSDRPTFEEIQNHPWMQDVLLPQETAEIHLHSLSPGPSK
Excerpt: as §1, §2, §3, §4, §5, §6, §7

Where [1] appears, read: product at 10 μmol/L, Table 2, N.I. = not inhibitory.

Molecule `O=Cc1c[nH]c2c1ccc1c3ccc(Br)cc3[nH]c12` [Example 43, 8-bromo-1,10-dihydropyrrolo[2,3-a]carbazole-3-carbaldehyde] registered a melting point of more than 250 °C. In addition, the remaining activity at 10 µM at PIM-3 came out at 15%. Also, at PIM-2, the remaining activity at 10 µM turned out to be 39%. Besides, the remaining activity at 10 µM on PIM-1 (setting [1]) worked out at 44%.
As to `CCc1cccc2c1[nH]c1c2ccc2cc[nH]c21` [Example 33, 9-ethyl-1,10-dihydropyrrolo[2,3-a]carbazole], the remaining activity at 10 µM on PIM-3 is 23%; at PIM-2 it was 96%; at PIM-1 (setting [1]), 28%.
Consider `O=Cc1c[nH]c2c1ccc1c3cccc(Br)c3[nH]c12` [Example 45, 9-bromo-1,10-dihydropyrrolo[2,3-a]carbazole-3-carbaldehyde], for which the remaining activity at 10 µM on PIM-3 came to 9%; on PIM-2, 28%; at PIM-1 (setting [1]), 3%.
Regarding `Brc1cccc2c1[nH]c1c2ccc2cc[nH]c21` [Example 27, 9-bromo-1,10-dihydropyrrolo[2,3-a]carbazole], the remaining activity at 10 µM turned out to be 43% at PIM-3 and 90% on PIM-1 (setting [1]). At PIM-2, the “Percentage of residual activity PIM-2” value is listed as “N.I”.
`Clc1cc(Cl)c2c(c1)[nH]c1c2ccc2cc[nH]c21` [Example 30, 6,8-dichloro-1,10-dihydropyrrolo[2,3-a]carbazole]: the remaining activity at 10 µM on PIM-3 was 14%; on PIM-2, 36%; on PIM-1 (setting [1]) it was 10%.
Turning to `COc1cccc(-c2ccc3[nH]c4c(ccc5c(C=O)c[nH]c54)c3c2)c1` [Example 36, 7-(3-methoxyphenyl)-1,10-dihydropyrrolo[2,3-a]-carbazole-3-carbaldehyde], the remaining activity at 10 µM at PIM-3 came out at 12%; at PIM-2, 31%; on PIM-1 (setting [1]), 17%.
On to `O=Cc1c[nH]c2c1ccc1c3cc(Br)ccc3[nH]c12` [Example 16, 7-bromo-1,10-dihydropyrrolo[2,3-a]carbazole-3-carbaldehyde], for which the remaining activity at 10 µM at PIM-3 is 6%; on PIM-2, 57%; on PIM-1 (setting [1]), 6%. Also, the IC50 is 40 nM on PIM-3 and 570 nM against PIM-1 (ten concentrations, dose-inhibition curve).
In the case of `Fc1cccc2c1[nH]c1c2ccc2cc[nH]c21` [Example 29, 9-fluoro-1,10-dihydropyrrolo[2,3-a]carbazole], the remaining activity at 10 µM on PIM-3 was found to be 43%. For the same molecule, at PIM-2, the “Percentage of residual activity PIM-2” value was “N.I”. Moreover, at PIM-1 (setting [1]), the “Percentage of residual activity PIM-1” value is “N.I”.
Consider `O=Cc1c[nH]c2c1ccc1c3cc(-c4ccccc4)ccc3[nH]c12` [Example 38, 7-phenyl-1,10-dihydropyrrolo[2,3-a]carbazole-3-carbaldehyde], for which the remaining activity at 10 µM at PIM-3 amounted to 15%; on PIM-2, 53%; on PIM-1 (setting [1]), 16%.
Consider `Brc1ccc2[nH]c3c(ccc4cc[nH]c43)c2c1` [Example 15, 7-bromo-1,10-dihydropyrrolo[2,3-a]carbazole], for which the remaining activity at 10 µM on PIM-3 was 8%; at PIM-2, 46%; at PIM-1 (setting [1]), 12%. It took 440 nM to reach half-maximal inhibition on PIM-3 (IC50).
Take `FC(F)(F)c1cccc2c1[nH]c1c2ccc2cc[nH]c21` [Example 34, 9-(trifluoromethyl)-1,10-dihydropyrrolo[2,3-a]carbazole]: the results for the remaining activity at 10 µM at PIM-3 and at PIM-1 (setting [1]) were 45% and 85%, respectively. Further, the “Percentage of residual activity PIM-2” value at PIM-2 is listed as “N.I”.
`N#Cc1ccc2[nH]c3c(ccc4c(C=O)c[nH]c43)c2c1` [Example 49, 3-formyl-1,10-dihydropyrrolo[2,3-a]carbazole-7-carbonitrile]: the remaining activity at 10 µM was 14% on PIM-3 and 92% at PIM-1 (setting [1]). Further, at PIM-2, the “Percentage of residual activity PIM-2” value is on record as “N.I”.
On to `OCc1c[nH]c2c1ccc1c3ccccc3[nH]c12` [Example 4, (1,10-dihydropyrrolo[2,3-a]carbazol-3-yl)methanol], for which the remaining activity at 10 µM at PIM-3 is 18%; on PIM-2 it was 47%; at PIM-1 (setting [1]), 28%.
For `CCOC(=O)C(=O)c1c[nH]c2c1ccc1c3ccccc3[nH]c12` [Example 8, ethyl 2-(1,10-dihydropyrrolo[2,3-a]carbazol-3-yl)-2-oxoacetate], in that order: 33%, 47% and 44%.
As to `O=S(=O)(c1ccccc1)n1ccc2ccc3c4ccccc4[nH]c3c21` [Example 1, 1-benzenesulfonyl-1,10-dihydropyrrolo[2,3-a]carbazole], the remaining activity at 10 µM was determined as 64% on PIM-3, 62% at PIM-2 and 61% at PIM-1 (setting [1]).

Usually melting point stands for the temperature of the solid-liquid transition. The IC50 is the concentration at which inhibition is half-maximal.

The values are drawn from US8481586B2, “Pyrrolo[2,3-a] carbazoles and use thereof as PIM kinase inhibitors” (Centre National de la Recherche Scientifique, priority 2008, dated 2013).
